Each structure is given as a SMILES string.

Data set [1] has as its system Plasmodium vinckei, petterei or chabaudi. As to the kind of experiment: Therapeutic index in infected mice (antimalaria activity compared with semi-chronic toxicity). Format: in vivo. To be noted: i.p. or s.c., twice a day for four days, ratio of activity over toxicity (LD50). How it is done: (§1) In order to evaluate the therapeutic index of the different products, the activity of these products was tested in vivo and compared with […] toxicity in animals. This activity was measured using the test described by PETERS W. (Chemotherapy and Drug resistance in Malaria, 1970). A compound was administered for four consecutive days to mice previously infected with Plasmodium vinckei, petterei or chabaudi. The said compound was dissolved in a 0.9% NaCl solution. The preparations were thus administered intraperitoneally or subcutaneously in male Swiss mice infected by intravenous injection of Plasmodium petterei or Plasmodium chadaudi (10^6 infected cells). The compound was administered twice a day for four consecutive days, the first injection being performed two hours after the infestation and the second, 10 hours later. The parasitemia was determined on blood smears the day after the end of treatment. Toxicity was measured in vivo following the same schedule, the animals having received, under the same administration conditions as above, two injections per day for four days (semi-chronic toxicity). The results are expressed in lethal dose 50 (LD50), i.e. the dose causing death in 50% of the animals.
(§2) The results of these trials are summarized in Table I, below, and expressed as therapeutic index, or the ratio of activity over toxicity measured under the identical conditions described above.

Data set [2] has as its system Babesia bovis, Babesia canis. As to the kind of experiment: In vitro antibabesia activity, (3H) hypoxanthine incorporation. It counts as cell-based. The following applies: score from ED50 of (3H) hypoxanthine incorporation. The source says:
The screening process for antimalaria activity, based on parasite incorporation of (^3 H) hypoxanthine was used to test the antimetabolic activity of such components against Babesia bovis, Babesia canis. A tight relationship was found between the rate of (^3 H) hypoxanthine incorporation using standard measurements and the percentage of parasitized cells determined by microscopy. […] The score was ++ for the same activity at a concentration of 0.01 to 0.1 micromoles and finally + for a concentration under or equal to 1 micromole.

Data set [3] can be described thus: Therapeutic index in infected mice (antimalaria activity compared with semi-chronic toxicity). Format: in vivo. To be noted: mouse, in vivo, i.p. or s.c., twice a day for four days, ratio of activity over toxicity (LD50). As for the experimental part: as §1, §2
Data set [4] relates to P. falciparum (FVO isolate). Kind of data set: Antimalaria activity of G25 in Aotus lemurinus monkey infected by P. falciparum FVO isolate. Format: in vivo. The text has this: Besides chimpanzees, only two South American monkey species, Aotus and Saimiri seirius, can be infected by P. falciparum. Currently, infection of Aotus monkeys with the human parasite is the best, and quasi-unique, model for evaluating therapeutic or vaccinal interventions against malaria (Collins W. E., Gallaud C. G., Sullivan J. S., and Morris C. L., "Selections of different strains of Plasmodium falciparum for testing blood stages in Aotus nancymal monkeys" An. J. Trop. Med. Hyg., 1994, 51 (2) 224-232).
The antimalaria activity was thus evaluated in the Aotus lemurinus monkey infected by the FVO (falciparum Vietnam Oaknoll) isolate of P. falciparum. This isolate is chloroquine-resistant and inevitably lethal for Aotus monkeys at the "Fundacion Centro de Primates" at the University del Valle, Cali, Colombia.
Treatment with G25 (dissolved in 0.9% NaCl) was initiated when the parasitemia reached 5.6%; 16 doses (0.2 mg/kg b.i.d. for 8 days) were given. […] The parasitemia in a monkey treated by combination sulfadoxine/pyrimethamine (FANSIDAR) is given for comparison.
In all, 15 monkeys were infected, then treated with G25 given by intramuscular injections at doses ranging from 0.010 to 0.2 mg/kg.

The nature of data set [5]: Maximal tolerable dose and therapeutic index in the monkey. To be noted: in vivo.

With `CCC[N+](CCC)(CCC)CCCCCCCCCCCCCCCC[N+](CCC)(CCC)CCC.[Br-].[Br-]` [EXAMPLE 9, N,N,N,N',N',N'-hexapropyl-1,16-hexadecanediaminium dibromide], in data set [1], the Therapeutic index is recorded as 36. In addition, the “Antibabesia activity at 10 millimoles” value in data set [2] was “+++ (a 50% inhibition of (^3 H) hypoxanthine incorporation (ED50), these molecules having a concentration less than or equal to 0.01 micromoles)”.

Take `CCC[N+](CCC)(CCC)CCCCCCCCCCCCCCCC[N+](CCC)(CCC)CCC.[Br-].[Br-]` [EXAMPLE 12, N,N,N,N',N',N'-hexapropyl-1,16-hexadecanediaminium dibromide]: the Therapeutic index in data set [1] is listed as 11. Besides, the “Antibabesia activity at 10 millimoles” value in data set [2] is listed as “++ (the same activity at a concentration of 0.01 to 0.1 micromoles)”.

As to `C[N+]1(CCCCCCCCCCCCCC[N+]2(C)CCCC2CO)CCCC1CO` (centres unmarked) [EXAMPLE 18, 1,1'-(1,14-tetradecanediyl)bis(2-hydroxymethl-1-methylpyrrolidium) dibromide], in data set [1], the Therapeutic index is on record as 22. Also, the “Antibabesia activity at 10 millimoles” value in data set [2] was “+++ (a 50% inhibition of (^3 H) hypoxanthine incorporation (ED50), these molecules having a concentration less than or equal to 0.01 micromoles)”.

As to `C[N+]1(CCCCCCCCCCCCCCCC[N+]2(C)CCCC(CO)C2)CCCC(CO)C1` (centres unmarked) [EXAMPLE 20], the Therapeutic index in data set [1] was 17. Also, in data set [2], the “Antibabesia activity at 10 millimoles” value is “+++ (a 50% inhibition of (^3 H) hypoxanthine incorporation (ED50), these molecules having a concentration less than or equal to 0.01 micromoles)”.

For the compound `CCC[N+](CCC)(CCO)CCCCCCCCCCCCCCCC[N+](CCC)(CCC)CCO.[Br-].[Br-]` [EXAMPLE 29, N,N'-di-(2-hydroxyethyl)-N,N,N',N'-tetrapropyl-1,16 hexadecane diaminium dibromide], the selectivity ratio in data set [3] is 12. The “Antibabesia activity at 10 millimoles” value in data set [2] is “++ (the same activity at a concentration of 0.01 to 0.1 micromoles)”.

In the case of `CCC[N+](CCC)(CCO)CCCCCCCCCCCCCCCCCCCC[N+](CCC)(CCC)CCO.[Br-].[Br-]` [EXAMPLE 30, N,N'-di(2-hydroxyethyl)-N,N,N',N'-tetrapropyl-1,20-eicosanediaminium dibromide], the selectivity ratio in data set [3] was 55. The “Antibabesia activity at 10 millimoles” value in data set [2] was “+++ (a 50% inhibition of (^3 H) hypoxanthine incorporation (ED50), these molecules having a concentration less than or equal to 0.01 micromoles)”.

As a reminder, the MTD is the highest dose tested that stayed within the study's limit of toxicity. Take `C[N+]1(CCCCCCCCCCCCCCCC[N+]2(C)CCCC2)CCCC1` [Example G25]: the Decline in parasitemia entry in data set [4] (FVO isolate, 0.2 mg/kg b.i.d. for 8 days, treatment started at 5.6% parasitemia) is “decline in parasitemia was evident at the second dose”. Further, the minimal effective dose in data set [4] (Plasmodium falciparum, in Primates, im, 4380 h, intramuscular, 6 months follow-up, read-out: Lowest dose with complete cure (validated by PCR), no recurrences) is 0.03 mg/kg. In addition, in data set [4] (intramuscular, 0.01 mg/kg), the “Activity at 0.01 mg/kg” value is “active (parasite clearance) but did not lead to complete cure (recurrence observed)”. Moreover, the maximal tolerated dose (MTD) in data set [5] was approximately 1.5 mg/kg. Further, the selectivity ratio in data set [5] (read-out: therapeutic index (LD50/ED50) in the monkey) was more than 50.

The values are drawn from patent US6096788A, “Antimalaria and antibabesiosis agents and pharmaceutical compositions containing such agents” (priority 1996, dated 2000).
